Results on 4 compounds are retold here after patent publication US20100029673A1, “THERAPEUTIC AGENTS COMPRISING AN ANTI-ANGIOGENIC AGENT IN COMBINATION WITH AN SRC-INHIBITOR AND THEIR THERAPEUTIC USE” (AstraZeneca AB, priority 2003, published 2010).

Bounds are passed on as bounds.

For one series, the system named is dog coronary arteries. The following applies: cited from earlier work.
The subject of the next series is conscious rats. The following applies: cited from earlier work.
A further series concerns anaesthetized rats. The conditions noted are these: 15 μg/kg bFGF; cited from earlier work.
In series [1] the test system is normotensive rats (Alderley Park strain, male animals). As to the kind of experiment: Measurement of blood pressure in conscious rats by radio-telemetry. The following applies: single dose p.o. of a combination of 1.5 mg/kg of VTK-1 and 25 mg/kg of Src-1 vs control citrate buffer vehicle; FIGS. 1-3. The class given is in vivo, rat. Here is the method: Blood pressure was measured using commercially-available radio-telemetry equipment (Data Sciences International, Saint Paul, Minn., USA) which provides a means for the remote measurement of the blood pressure (BP), heart rate and activity of a conscious, unrestrained laboratory animal such as a rat. Measurements obtained using this system have the advantage that the test animal is free from stresses induced by surgery and/or restraint.
The equipment comprises a pressure transducer (Code No. TA11PA-C40; hereinafter the ‘pressure transducer implant’) that is implanted into the abdomen of a laboratory rat. The transducer transmits a radio signal indicating the pressure in the aorta of the animal and the signal is detected by a receiver (RA1010) placed under the plastic cage which houses the animal. The signal is recorded and evaluated automatically by pre-written computer software (DataQuest 2.1 that may be installed on a suitable computer such as an IBM-compatible personal computer containing an Intel™ 486 processor). […]
The animals were housed in a facility using a 12 hour cycle of light and dark. […] Blood pressure data were recorded from each animal every 10 minutes throughout each Study.
Typically, on day 1, each of a group of 3 rats was dosed p.o. at approximately 9.00 am with control vehicle and blood pressure data were recorded during the ensuing 24 hour period. […]

Consider VEGF, for which the “effect on dog coronary arteries in vitro” value in the series with dog coronary arteries is listed as “dilate dog coronary arteries”. Further, the “return to normal blood pressure” value with conscious rats (VEGF 250 μg/kg, conscious rats) was at most 20 min. Also, the “effect on blood pressure in the conscious rat” value in the series with conscious rats (conscious rat) was “induce hypotension”.

For the compound bFGF: basic fibroblast growth factor, the “blood pressure returning to normal” value in the series with anaesthetized rats is at most 30 min.

Turning to `COc1cc2c(Oc3ccc4[nH]c(C)cc4c3F)ncnc2cc1OCCCN1CCCCC1` [VTK-1, 4-(4-fluoro-2-methylindol-5-yloxy)-6-methoxy-7-(3-piperidinopropoxy)quinazoline], the “contrasting blood pressure effects (diastolic blood pressure profile)” value in series [1] was “substantially counter-balanced”.

In the case of `CC(=O)N1CCN(CCOc2cc(OC(C)C)c3c(Nc4c(Cl)ccc5c4OCO5)ncnc3c2)CC1` [Src-1, 7-[2-(4-acetylpiperazin-1-yl)ethoxy]-4-(6-chloro-2,3-methylenedioxyanilino)-5-isopropoxyquinazoline], the “contrasting blood pressure effects (diastolic blood pressure profile)” value in series [1] is given as “substantially counter-balanced”.
